System: Neisseria meningitidis MC58
Assay: Activity at Neisseria meningitidis B MC58 (ATCC BAA355) recombinant 3-deoxy-D-manno-octulosonate 8-phosphate synthase expressed in Escherichia coli BL21 (DE3)

Row | kcat [s⁻¹] | Structure (SMILES)
1 | 1.1 | O=C[C@@H](O)[C@H](O)[C@@H](O)COP(=O)(O)O
2 | 2.7 | O=C[C@@H](O)[C@H](O)[C@H](O)COP(=O)(O)O
